Holding throughout (assay type): biochemical
One assay concerns the target T1, human ME3 enzyme (Homo sapiens, UniProt Q16798).
T1 sequence (Q16798 1-604): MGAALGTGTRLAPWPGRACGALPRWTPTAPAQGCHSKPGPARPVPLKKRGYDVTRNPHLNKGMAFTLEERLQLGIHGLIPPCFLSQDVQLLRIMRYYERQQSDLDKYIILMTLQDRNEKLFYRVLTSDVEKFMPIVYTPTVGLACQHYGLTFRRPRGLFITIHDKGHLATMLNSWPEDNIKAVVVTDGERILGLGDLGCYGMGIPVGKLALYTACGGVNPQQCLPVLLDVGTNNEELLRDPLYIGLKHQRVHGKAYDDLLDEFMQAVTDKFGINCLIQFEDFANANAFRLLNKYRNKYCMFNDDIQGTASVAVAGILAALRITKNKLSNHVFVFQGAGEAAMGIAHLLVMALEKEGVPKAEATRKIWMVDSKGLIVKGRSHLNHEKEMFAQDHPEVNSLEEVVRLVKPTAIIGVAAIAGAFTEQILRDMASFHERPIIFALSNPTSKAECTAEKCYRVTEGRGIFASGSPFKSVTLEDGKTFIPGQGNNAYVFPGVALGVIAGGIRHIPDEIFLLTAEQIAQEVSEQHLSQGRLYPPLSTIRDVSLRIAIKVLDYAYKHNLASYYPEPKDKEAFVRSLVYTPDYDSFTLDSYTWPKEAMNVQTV
Description: ME3 inhibition assay (diaphorase/resazurin coupled fluorescence). Particulars: 10 μM compound concentration; read-out: Malic Enzyme 3 % inhibition (10 μM). The essentials:
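Coupled read-out: NADPH made by human ME3 (20 nM stock) drives diaphorase conversion of resazurin (50 μM) to resorufin; buffer 50 mM Tris-HCl pH 7.5, 10 mM MnCl2, 3 mM L-malate.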
A general note: The colour change of resazurin is a common sign of viable cells or microbes.

In a further assay the target is T2, human ME1 enzyme (Homo sapiens, UniProt P48163).
T2 sequence (P48163 1-572): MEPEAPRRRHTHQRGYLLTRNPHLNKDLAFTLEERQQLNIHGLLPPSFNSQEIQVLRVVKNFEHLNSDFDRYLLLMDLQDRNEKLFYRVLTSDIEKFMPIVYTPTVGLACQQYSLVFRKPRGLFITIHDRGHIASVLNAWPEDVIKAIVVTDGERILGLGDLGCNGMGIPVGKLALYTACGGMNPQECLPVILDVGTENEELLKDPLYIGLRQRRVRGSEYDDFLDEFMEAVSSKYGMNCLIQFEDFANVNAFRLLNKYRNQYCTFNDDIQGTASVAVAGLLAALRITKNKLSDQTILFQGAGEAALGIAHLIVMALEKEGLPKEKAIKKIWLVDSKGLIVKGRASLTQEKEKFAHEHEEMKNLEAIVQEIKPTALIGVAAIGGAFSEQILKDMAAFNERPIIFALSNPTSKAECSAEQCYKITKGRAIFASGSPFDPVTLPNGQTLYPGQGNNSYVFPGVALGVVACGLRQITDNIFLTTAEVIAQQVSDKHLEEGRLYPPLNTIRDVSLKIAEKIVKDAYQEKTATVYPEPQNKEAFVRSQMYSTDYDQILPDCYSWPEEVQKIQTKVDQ
Description: ME1 inhibition assay (diaphorase/resazurin coupled fluorescence). Particulars: 10 μM compound concentration; read-out: Malic Enzyme 1 % inhibition (10 μM). The essentials:
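Compounds at 10 μM preincubated 15 min in 50 mM Tris-HCl pH 7.5, 10 mM MnCl2, 2 mM L-malate, 10 μM resazurin, 0.01 mg/ml diaphorase, then human ME1 added for 5 min; reaction started with NADP+ and run 2 h at room temperature. Resorufin fluorescence (ex 540/em 600 nm) normalized to enzyme-only (100%) and no-enzyme (0%) controls.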

The next assay concerns the target human ME2 enzyme (Homo sapiens, UniProt P23368). Description: ME2 inhibition assay (diaphorase/resazurin coupled fluorescence). Conditions: 10 μM compound concentration; read-out: Malic Enzyme 2 % inhibition (10 μM). The method in brief: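 Human ME2 (10 μL of 60 nM) was preincubated 5 min at room temperature with compound (10 μM) in 50 mM Tris-HCl pH 7.5, 10 mM MnCl2, 7 mM L-malate, 50 μM resazurin and 0.025 mg/ml diaphorase. The reaction was started with 10 μL of 2 mM β-NAD+ and run 2 hours at room temperature. Resorufin fluorescence (ex 540/em 600 nm) was normalized to enzyme-only (100%) and no-enzyme (0%) controls as % activity.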

Chain of human ME2 enzyme (P23368 19-584): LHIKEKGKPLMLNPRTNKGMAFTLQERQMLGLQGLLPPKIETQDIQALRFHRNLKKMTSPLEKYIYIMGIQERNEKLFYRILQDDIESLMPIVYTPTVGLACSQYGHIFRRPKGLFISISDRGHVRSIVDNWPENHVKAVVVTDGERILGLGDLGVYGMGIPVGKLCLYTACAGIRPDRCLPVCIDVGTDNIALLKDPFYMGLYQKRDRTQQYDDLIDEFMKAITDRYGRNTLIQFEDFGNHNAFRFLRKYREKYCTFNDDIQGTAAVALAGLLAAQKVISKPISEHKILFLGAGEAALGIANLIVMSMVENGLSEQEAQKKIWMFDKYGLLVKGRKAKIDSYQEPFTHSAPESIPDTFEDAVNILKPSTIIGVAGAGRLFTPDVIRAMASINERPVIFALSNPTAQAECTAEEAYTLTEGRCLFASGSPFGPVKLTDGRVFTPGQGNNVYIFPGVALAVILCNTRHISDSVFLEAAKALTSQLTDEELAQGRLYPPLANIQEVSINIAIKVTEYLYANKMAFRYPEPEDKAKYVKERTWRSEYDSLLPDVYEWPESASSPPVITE

Turning to `O=C(Cc1c[nH]c2ccc(F)cc12)N1CCN(c2ccc(O)cn2)CC1` [I.131, 2-(5-fluoro-1H-indol-3-yl)-1-[4-(5-hydroxypyridin-2-yl)-piperazin-1-yl]-ethanone], the inhibition at 10 µM on human ME3 enzyme, at human ME1 enzyme and at human ME2 enzyme was above 90% in each case.

Take `O=C(C1Cc2ccccc2C1)N1CCN(c2ccc(O)cn2)CC1` [I.67, [4-(5-Hydroxy-pyridin-2-yl)-piperazin-1-yl]-indan-2-yl-methanone]: the figures for the inhibition at 10 µM at human ME3 enzyme, on human ME1 enzyme and on human ME2 enzyme were above 90%, above 90% and 50 to 69%, respectively.

Regarding `O=C(c1c[nH]c2ccc(F)cc12)N1CCN(c2ccc(O)cn2)CC1` [I.155, (5-Fluoro-1H-indol-3-yl)-[4-(5-hydroxy-pyridin-2-yl)-piperazin-1-yl]-methanone], the inhibition at 10 µM on human ME3 enzyme, on human ME1 enzyme and on human ME2 enzyme was above 90% in each case.

Consider `COc1ccc(C(CC(=O)N2CCN(c3ccc(O)cn3)CC2)c2ccc(OC)cc2)cc1` [I.93, 1-[4-(5-Hydroxy-2-pyridyl)-piperazin-1-yl]-3,3-bis(4-methoxy-phenyl)-propan-1-one], for which the inhibition at 10 µM is above 90% at human ME3 enzyme, 70 to 89% at human ME1 enzyme and 70 to 89% at human ME2 enzyme.

Consider `O=C(c1c2ccccc2nc2ccccc12)N1CCN(c2ccc(O)cn2)CC1` [I.44, Acridin-9-yl-[4-(5-hydroxy-pyridin-2-yl)-piperazin-1-yl]-methanone], for which the inhibition at 10 µM was above 90% at human ME3 enzyme, above 90% at human ME1 enzyme and 50 to 69% at human ME2 enzyme.

On to `O=C(CCc1cc2ccccc2s1)N1CCN(c2ccc(O)cn2)CC1` [I.122, 3-Benzo[b]-thiophen-2-yl-1-[4-(5-hydroxy-pyridin-2-yl)-piperazin-1-yl]-propan-1-one], for which the inhibition at 10 µM on human ME3 enzyme, at human ME1 enzyme and at human ME2 enzyme was above 90% throughout.

As for `Cc1[nH]c2cc(Cl)c(Cl)cc2c1CC(=O)N1CCN(c2ccc(O)cn2)CC1` [I.176, 2-(5,6-Dichloro-2-methyl-1H-indol-3-yl)-1-[4-(5-hydroxy-pyridin-2-yl)-piperazin-1-yl]-ethanone], the inhibition at 10 µM at human ME3 enzyme, at human ME1 enzyme and at human ME2 enzyme was above 90% in each case.

Take `O=C(CCC1CCCCC1)N1CCN(c2ccc(O)cn2)CC1` [I.121, 3-Cyclohexyl-1-[4-(5-hydroxy-2-pyridyl)-piperazin-1-yl]propan-1-one]: the inhibition at 10 µM on human ME3 enzyme, at human ME1 enzyme and at human ME2 enzyme was above 90% in each case.

As for `O=C(Cc1c[nH]c2cc(F)c(F)cc12)N1CCN(c2ccc(O)cn2)CC1` [I.160, 2-(5,6-Difluoro-1H-indol-3-yl)-1-[4-(5-hydroxy-pyridin-2-yl)-piperazin-1-yl]-ethanone], the inhibition at 10 µM at human ME3 enzyme, on human ME1 enzyme and on human ME2 enzyme was above 90% each time.

For `O=C(C=C(c1ccccc1)c1ccccc1)N1CCN(c2ccc(O)cc2)CC1` [I.40, 1-[4-(4-hydroxyphenyl)piperazin-1-yl]-3,3-diphenylprop-2-en-1-one], the inhibition at 10 µM on human ME3 enzyme, on human ME1 enzyme and at human ME2 enzyme was above 90% throughout.

Turning to `O=C(CCc1ccc(F)c(F)c1)N1CCN(c2ccc(O)cn2)CC1` [I.153, 3-(3,4-Difluoro-phenyl)-1-[4-(5-hydroxy-pyridin-2-yl)-piperazin-1-yl]-propan-1-one], the inhibition at 10 µM at human ME3 enzyme, on human ME1 enzyme and at human ME2 enzyme was above 90% throughout.

On to `O=C(Cc1ccccc1)N1CCN(c2ccc(O)cn2)CC1` [I.6, 1-[4-(5-Hydroxy-pyridin-2-yl)-piperazin-1-yl]-2-phenyl-ethanone], for which the inhibition at 10 µM at human ME3 enzyme, at human ME1 enzyme and at human ME2 enzyme was above 90% each time.

`O=C(CSc1ccc(F)cc1)N1CCN(c2ccc(O)cn2)CC1` [I.163, 2-(4-Fluoro-phenyl-sulfanyl)-1-[4-(5-hydroxy-pyridin-2-yl)-piperazin-1-yl]-ethanone]: the inhibition at 10 µM on human ME3 enzyme, on human ME1 enzyme and at human ME2 enzyme was above 90% in each case.

On to `O=C(C(c1ccccc1)c1ccccc1)N1CCN(c2ccc(O)cn2)CC1` [I.48, 1-[4-(5-Hydroxy-2-pyridyl)-piperazin-1-yl]-2,2-diphenyl-ethanone], for which the inhibition at 10 µM at human ME3 enzyme is above 90%; at human ME1 enzyme it was 70 to 89%; at human ME2 enzyme, 70 to 89%.

On to `O=C(c1c[nH]c2ccc(F)cc12)N1CCN(c2ccc(O)cc2)CC1` [I.156, (5-Fluoro-1H-indol-3-yl)-[4-(4-hydroxy-phenyl)-piperazin-1-yl]-methanone], for which the inhibition at 10 µM at human ME3 enzyme, on human ME1 enzyme and at human ME2 enzyme was above 90% throughout.

Take `O=C(CCc1ccccn1)N1CCN(c2ccc(O)cn2)CC1` [I.129, 1-[4-(5-Hydroxy-pyridin-2-yl)-piperazin-1-yl]-3-pyridin-2-yl-propan-1-one]: the results for the inhibition at 10 µM at human ME3 enzyme, on human ME1 enzyme and at human ME2 enzyme were above 90%, 70 to 89% and 70 to 89%, respectively.

Take `O=C(CCc1c[nH]c2ccccc12)N1CCN(c2ccc(O)cn2)CC1` [I.51, 1-[4-(5-Hydroxy-pyridin-2-yl)-piperazin-1-yl]-3-(1H-indol-3-yl)-propan-1-one]: the inhibition at 10 µM on human ME3 enzyme is above 90%; at human ME1 enzyme, 70 to 89%; at human ME2 enzyme it was 70 to 89%.

In the case of `Cn1cc(C(=O)N2CCN(c3ccc(O)cn3)CC2)c(=O)c2ccccc21` [I.69, 3-[4-(5-Hydroxy-2-pyridyl)-piperazine-1-carbonyl]-1-methyl-quinolin-4-one], the values for the inhibition at 10 µM on human ME3 enzyme, on human ME1 enzyme and at human ME2 enzyme were above 90%, 70 to 89% and 70 to 89%, respectively.

Consider `O=C(Cc1cc(F)c(F)c(F)c1)N1CCN(c2ccc(O)cc2)CC1` [I.171, 1-[4-(4-Hydroxy-phenyl)-piperazin-1-yl]-2-(3,4,5-trifluoro-phenyl)-ethanone], for which the inhibition at 10 µM on human ME3 enzyme, on human ME1 enzyme and at human ME2 enzyme was above 90% in each case.

Consider `O=C(CSc1ccccc1Br)N1CCN(c2ccc(O)cc2)CC1` [I.151, 2-(2-bromo-phenylsulfanyl)-1-[4-(4-hydroxy-phenyl)-piperazin-1-yl]-ethanone], for which the inhibition at 10 µM on human ME3 enzyme, on human ME1 enzyme and on human ME2 enzyme was above 90% throughout.

Turning to `O=C(O)c1ccccc1CCC(=O)N1CCN(c2ccc(O)cn2)CC1` [I.141, 2-{3-[4-(5-Hydroxy-pyridin-2-yl)-piperazin-1-yl]-3-oxo-propyl}-benzoic acid], the inhibition at 10 µM was above 90% at human ME3 enzyme, 70 to 89% on human ME1 enzyme and above 90% on human ME2 enzyme.

Turning to `O=C(C=C(c1ccccc1)c1ccccc1)N1CCN(c2ccc(O)cn2)CC1` [I.74, 1-[4-(5-Hydroxy-2-pyridyl)-piperazin-1-yl]-3,3-diphenyl-prop-2-en-1-one], the results for the inhibition at 10 µM on human ME3 enzyme, on human ME1 enzyme and at human ME2 enzyme were above 90%, above 90% and 70 to 89%, respectively.

The inhibition is the change of the read-out against control, counted positive when it falls.

The record behind these values is US11225480B2, “Malic enzyme inhibitors” (SUN PHARMA ADVANCED RESEARCH COMPANY LTD, priority 2019, dated 2022).
